Source: US20260193227A1, “THERAPEUTIC COMPOUNDS AND METHODS” (UNIVERSITY OF IOWA RESEARCH FOUNDATION, priority 2022, published 2026)

System: EUFA423F and EUFA423F HA cells
Assay: Clonogenic survival assay
Format: cell-based, human
Details: cells pre-treated 72 hours, colonies after 8 days
From the text: Cell lines: EUFA423F cells that are derived from a Fanconi Anemia patient with complementation group D1 and have biallelic mutations (7691 insAT and 9900 insA) in BRCA2 that result in two different truncated forms of BRCA2 (Howlett N G, et al., Science (New York, NY). 2002; 297(5581):606-9) and its counterpart complemented with expression vector for full-length BRCA2 (EUFA HA) were a generous gift from Dr. Simon Powell, Molecular Biology Program, Radiation Oncology, Sloan-Kettering Cancer Center, New York, NY).
Cell proliferation assay: Selective toxicity of the compounds towards human BRCA2 deficient cells was tested in EUFA423F and its complement EUFA423F HA using CellTiter-Glo® Luminescent Cell Viability Assay (Promega, Madison, WI). […] Post treatment, the cells were washed, treated with the CellTiter-Glo® reagent was added and the plate was analyzed as using a Gen5 (ver2.1) luminosity plate reader. The luminescence that reports on ATP generation by the surviving cells was normalized for the DMSO treated control as 100%. The normalized luminescence (average±standard deviation for at least three independent measurements obtained with different cell passages) was plotted in GraphPad Prism as a function of compound concentration. […] A colony had to contain at least 50 cells to be counted. […]

SMILES	clonogenic survival: confirmation of effect on cell viability
O=C(Cn1cccc([N+](=O)[O-])c1=O)c1c[nH]c2ccccc12 [Example 1]	confirmed
COc1ccccc1NS(=O)(=O)c1cc(C(=O)O)ccc1C [Example 8]	confirmed
